What follows are compounds tested against CBP (Homo sapiens (Human), UniProt Q92793) (assay: CBP TR-FRET binding assay). Conditions: His/Flag tagged CBP 4 nM, biotin-ligand 60 nM; read-out: CBP HTRF IC50.
Protocol: IC50 Measurements for Inhibitors Using CBP TR FRET Binding Assay
His/Flag epitope tagged CBP was cloned, expressed, and purified to homogeneity. CBP binding and inhibition was assessed by monitoring the engagement of a biotinylated small molecule compound with the target using the TR-FRET assay technology (Perkin-Elmer). Specifically, in a 384 well ProxiPlate CBP (4 nM final) was combined with biotin-ligand (60 nM final) in 50 mM HEPES (pH 7.5), 50 mM NaCl, 1 mM TCEP, 0.01% (w/v) BSA, and 0.008% (w/v) Brij-35 either in the presence of DMSO (final 0.2% DMSO) or compound dilution series in DMSO. […] After twenty minutes of equilibration, the plates were read on an Envision instrument and IC50S calculated using a four parameter non-linear curve fit.
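Also: displacement of a biotinylated small-molecule ligand from purified recombinant CBP read by TR-FRET, DMSO-only wells as control, IC50 from nonlinear curve fit.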

Sequence of CBP (Q92793 whole entry): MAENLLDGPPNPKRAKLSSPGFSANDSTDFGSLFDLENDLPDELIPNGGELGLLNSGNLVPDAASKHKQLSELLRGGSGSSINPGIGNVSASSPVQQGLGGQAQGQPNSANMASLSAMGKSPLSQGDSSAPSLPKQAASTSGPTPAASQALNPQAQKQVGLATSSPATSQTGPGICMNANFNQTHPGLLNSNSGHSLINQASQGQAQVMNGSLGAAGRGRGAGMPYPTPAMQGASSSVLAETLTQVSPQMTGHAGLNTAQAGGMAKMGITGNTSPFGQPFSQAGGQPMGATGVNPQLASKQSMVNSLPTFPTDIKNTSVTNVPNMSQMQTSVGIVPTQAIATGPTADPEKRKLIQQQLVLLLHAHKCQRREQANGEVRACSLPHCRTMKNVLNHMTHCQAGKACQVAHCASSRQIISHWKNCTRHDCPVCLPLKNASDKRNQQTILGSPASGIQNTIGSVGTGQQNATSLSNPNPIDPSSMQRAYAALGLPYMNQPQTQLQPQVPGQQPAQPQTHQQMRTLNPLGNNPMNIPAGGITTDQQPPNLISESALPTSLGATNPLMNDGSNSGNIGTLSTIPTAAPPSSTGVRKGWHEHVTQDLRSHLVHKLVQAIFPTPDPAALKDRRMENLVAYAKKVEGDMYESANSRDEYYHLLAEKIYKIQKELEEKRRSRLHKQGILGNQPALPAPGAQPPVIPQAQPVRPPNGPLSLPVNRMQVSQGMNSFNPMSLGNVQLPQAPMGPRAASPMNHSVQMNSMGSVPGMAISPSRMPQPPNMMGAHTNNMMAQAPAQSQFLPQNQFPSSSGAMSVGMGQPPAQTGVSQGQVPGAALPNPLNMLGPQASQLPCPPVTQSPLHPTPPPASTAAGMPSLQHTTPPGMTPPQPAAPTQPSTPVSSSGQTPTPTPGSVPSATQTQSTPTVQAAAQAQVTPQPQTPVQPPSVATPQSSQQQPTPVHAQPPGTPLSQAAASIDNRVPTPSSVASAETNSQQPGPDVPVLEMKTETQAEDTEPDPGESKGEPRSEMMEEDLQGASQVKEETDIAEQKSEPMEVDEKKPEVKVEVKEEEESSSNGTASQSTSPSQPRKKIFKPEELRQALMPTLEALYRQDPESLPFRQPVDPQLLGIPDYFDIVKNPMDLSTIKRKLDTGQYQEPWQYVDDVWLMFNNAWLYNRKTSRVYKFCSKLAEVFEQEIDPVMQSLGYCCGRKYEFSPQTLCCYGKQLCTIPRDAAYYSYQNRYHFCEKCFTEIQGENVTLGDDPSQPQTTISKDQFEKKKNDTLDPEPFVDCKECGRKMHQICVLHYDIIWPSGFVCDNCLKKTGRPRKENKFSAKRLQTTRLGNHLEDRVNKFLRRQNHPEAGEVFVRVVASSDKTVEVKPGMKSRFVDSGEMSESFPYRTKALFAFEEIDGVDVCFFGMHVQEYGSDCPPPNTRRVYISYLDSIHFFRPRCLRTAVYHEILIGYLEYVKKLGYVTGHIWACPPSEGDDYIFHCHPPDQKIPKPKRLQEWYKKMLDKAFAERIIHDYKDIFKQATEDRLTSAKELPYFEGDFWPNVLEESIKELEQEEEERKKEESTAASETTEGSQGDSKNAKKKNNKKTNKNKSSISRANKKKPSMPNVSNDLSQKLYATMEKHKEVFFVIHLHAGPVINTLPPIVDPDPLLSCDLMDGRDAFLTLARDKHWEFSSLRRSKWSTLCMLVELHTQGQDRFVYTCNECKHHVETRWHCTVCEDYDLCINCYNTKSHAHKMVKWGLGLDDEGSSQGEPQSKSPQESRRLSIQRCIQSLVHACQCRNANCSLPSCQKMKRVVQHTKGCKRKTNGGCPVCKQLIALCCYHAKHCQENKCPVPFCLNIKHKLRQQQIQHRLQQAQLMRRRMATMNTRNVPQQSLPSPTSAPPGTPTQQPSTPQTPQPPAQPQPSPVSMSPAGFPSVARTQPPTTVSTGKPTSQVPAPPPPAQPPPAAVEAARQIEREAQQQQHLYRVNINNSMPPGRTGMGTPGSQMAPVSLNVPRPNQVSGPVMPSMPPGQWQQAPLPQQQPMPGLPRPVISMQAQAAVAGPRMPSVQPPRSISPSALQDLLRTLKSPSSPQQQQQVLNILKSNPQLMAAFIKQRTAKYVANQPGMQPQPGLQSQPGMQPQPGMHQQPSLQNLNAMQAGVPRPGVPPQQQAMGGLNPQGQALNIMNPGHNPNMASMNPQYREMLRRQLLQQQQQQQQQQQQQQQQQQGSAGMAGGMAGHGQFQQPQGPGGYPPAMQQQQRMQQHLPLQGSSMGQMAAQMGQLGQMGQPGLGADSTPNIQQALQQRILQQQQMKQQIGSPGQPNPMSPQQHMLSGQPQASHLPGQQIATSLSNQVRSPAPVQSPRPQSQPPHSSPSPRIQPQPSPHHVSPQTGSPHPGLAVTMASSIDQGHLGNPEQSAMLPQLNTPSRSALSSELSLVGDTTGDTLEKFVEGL

IC50	SMILES
42 nM	CC1C(=O)N(C)c2cc(N3CCCc4cc(-c5cnn(C)c5)c(C(F)F)cc43)ccc21 (stereo in doubt) [Example 92, (R)-6-[7-(difluoromethyl)-6-(1-methylpyrazol-4-yl)-3,4-dihydro-2H-quinolin-1-yl]-1,3-dimethyl-indolin-2-one]
95 nM	CC1C(=O)N(C)c2cc(N3CCCc4cc(-c5cnn(C)c5)c(C(F)F)cc43)ccc21 (stereo in doubt) [Example 93, (S)-6-[7-(difluoromethyl)-6-(1-methylpyrazol-4-yl)-3,4-dihydro-2H-quinolin-1-yl]-1,3-dimethyl-indolin-2-one]
187 nM	CNC(=O)N1CCOc2ccc(-c3nccc4ccccc34)cc2C1 [Example 1, 7-(isoquinolin-1-yl)-N-methyl-2,3-dihydrobenzo[f][1,4]oxazepine-4(5H)-carboxamide]
321 nM	CNC(=O)N1CCOc2ccc(-c3nc(N)cc4cnccc34)cc2C1 [Example 2]
57 nM	CNC(=O)N1CCOc2ccc(-c3c(C)ccc4c3cnn4C)cc2C1 [Example 3, 7-(1,5-dimethylindazol-4-yl)-N-methyl-3,5-dihydro-2H-1,4-benzoxazepine-4-carboxamide]
193 nM	CNC(=O)N1CCOc2ccc(-c3ccnc4ccccc34)cc2C1 [Example 4]
296 nM	CNC(=O)N1CCOc2ccc(-c3cccc4nn(C)cc34)cc2C1 [Example 5]
362 nM	CNC(=O)N1CCOc2ccc(-c3cccc4ncccc34)cc2C1 [Example 6]
273 nM	CNC(=O)N1CCOc2ccc(-c3cc(C)ccc3C)cc2C1 [Example 7]
394 nM	CNC(=O)N1CCOc2ccc(-c3cccc4cnn(C)c34)cc2C1 [Example 8]
78 nM	CNC(=O)N1CCOc2ccc(-c3c(C)ccc4[nH]ncc34)cc2C1 [Example 9]
96 nM	CNC(=O)N1CCOc2ccc(-c3cccc4c3cnn4C)cc2C1 [Example 10]
281 nM	CNC(=O)N1CCOc2ccc(-c3cncc4ccccc34)cc2C1 [Example 11]
59 nM	CNC(=O)N1CCOc2ccc(-c3c(F)ccc4[nH]ccc34)cc2C1 [Example 12]
267 nM	CNC(=O)N1CCOc2ccc(-c3ccc4[nH]ccc4c3)cc2C1 [Example 13]
102 nM	CNC(=O)N1CCOc2ccc(-c3cccc4[nH]ncc34)cc2C1 [Example 14]
391 nM	CNC(=O)N1CCOc2ccc(-c3cccc4cn[nH]c34)cc2C1 [Example 15]
33 nM	CN1C(=O)CCc2ccc(N3CCCc4cc(-c5cnn(C)c5)c(C(F)F)cc43)cc21 [Example 19]
1750 nM	CN1C(=O)C(C)(C)c2ccc(N3CCCc4cc(-c5cnn(C)c5)c(C(F)F)cc43)cc21 [Example 20]
1690 nM	Cn1cc(-c2cc3c(cc2C(F)F)N(c2ccc4c(c2)sc(=O)n4C)CCC3)cn1 [Example 22]
317 nM	Cn1cc(-c2ccc3c(c2)CCCN3c2ccc3sc(=O)n(C)c3c2)cn1 [Example 23]
106 nM	Cn1cc(-c2cc3c(cc2C(F)F)N(c2cc4c(cn2)n(C)c(=O)n4C)CCC3)cn1 [Example 24]
38 nM	Cn1cc(-c2cc3c(cc2C(F)F)N(c2cnc4c(c2)n(C)c(=O)n4C)CCC3)cn1 [Example 25]
2280 nM	Cn1cc(-c2cc3c(cc2C(F)F)N(c2ccc4c(n2)n(C)c(=O)n4C)CCC3)cn1 [Example 26]
34 nM	CNC(=O)c1ccc2nccc(N3CCCc4cc(-c5cnn(C)c5)c(C(F)F)cc43)c2c1 [Example 27, 4-[7-(difluoromethyl)-6-(1-methylpyrazol-4-yl)-3,4-dihydro-2H-quinolin-1-yl]-N-methyl-quinoline-6-carboxamide]
199 nM	COC(=O)c1ccc2nccc(N3CCCc4cc(-c5cnn(C)c5)ccc43)c2c1 [Example 28]
160 nM	CNC(=O)c1ccc2nccc(N3CCCc4cc(-c5cnn(C)c5)ccc43)c2c1 [Example 29]

IC50	SMILES
543 nM	CNC(=O)c1cnn2ccc(N3CCCc4cc(-c5cnn(C)c5)c(C(F)F)cc43)cc12 [Example 30]
172 nM	CCn1c(=O)n(C)c2cc(N3CCCc4cc(-c5cnn(C)c5)c(C(F)F)cc43)ccc21 [Example 31, 5-[7-(difluoromethyl)-6-(1-methylpyrazol-4-yl)-3,4-dihydro-2H-quinolin-1-yl]-1-ethyl-3-methyl-benzimidazol-2-one]
48 nM	CCn1c(=O)n(C)c2ccc(N3CCCc4cc(-c5cnn(C)c5)c(C(F)F)cc43)cc21 [Example 32]
16 nM	Cn1cc(-c2cc3c(cc2C(F)F)N(c2cc(C4CC4)c4c(c2)n(C)c(=O)n4C)CCC3)cn1 [Example 38]
19 nM	CNc1cc(N2CCCc3cc(-c4cnn(C)c4)c(C(F)F)cc32)cc2c1n(C)c(=O)n2C [Example 42]
26 nM	Cn1cc(-c2cc3c(cc2C(F)F)N(c2cc(N4CCCCC4)c4c(c2)n(C)c(=O)n4C)CCC3)cn1 [Example 44]
22 nM	CNC(=O)c1cn(C)c2ccc(-c3cccc4cc(-c5cnn(C)c5)ncc34)cc12 [Example 49]
48 nM	CNC(=O)c1c[nH]c2ccc(N3CCCc4cc(-c5cnn(C)c5)ccc43)cc12 [Example 53]
26 nM	CNC(=O)c1cn(C)c2cnc(N3CCCc4cc(-c5cnn(C)c5)c(C(F)F)cc43)nc12 [Example 61]
18 nM	CNC(=O)c1c[nH]c2cnc(N3CCCc4cc(-c5cnn(C)c5)c(C(F)F)cc43)nc12 [Example 70]
187 nM	CNC(=O)c1n[nH]c2ccc(N3CCCc4cc(-c5cnn(C)c5)c(C(F)F)cc43)nc12 [Example 71]
110 nM	CNC(=O)c1cnc2ccc(N3CCCc4cc(-c5cnn(C)c5)c(C(F)F)cc43)nn12 [Example 72, 6-(7-(difluoromethyl)-6-(1-methyl-1H-pyrazol-4-yl)-3,4-dihydroquinolin-1(2H)-yl)-N-methylimidazo[1,2-b]pyridazine-3-carboxamide]
80 nM	CNC(=O)c1coc2ccc(N3CCCc4cc(-c5cnn(C)c5)c(C(F)F)cc43)cc12 [Example 73, 5-(7-(difluoromethyl)-6-(1-methyl-1H-pyrazol-4-yl)-3,4-dihydroquinolin-1(2H)-yl)-N-methylbenzofuran-3-carboxamide]
108 nM	Cn1cc(-c2cc3c(cc2C(F)F)N(c2cnc4[nH]cc(-c5cnn(C)c5)c4n2)CCC3)cn1 [Example 74, 7-(difluoromethyl)-6-(1-methyl-1H-pyrazol-4-yl)-1-(7-(1-methyl-1H-pyrazol-4-yl)-5H-pyrrolo[2,3-b]pyrazin-2-yl)-1,2,3,4-tetrahydroquinoline]
244 nM	Cn1cc(-c2ccc3c(c2)CCCN3c2cnc3[nH]cc(-c4cnn(C)c4)c3n2)cn1 [Example 75, 6-(1-methyl-1H-pyrazol-4-yl)-1-(7-(1-methyl-1H-pyrazol-4-yl)-5H-pyrrolo[2,3-b]pyrazin-2-yl)-1,2,3,4-tetrahydroquinoline]
243 nM	CNC(=O)N1CCOc2ccc(-c3c(C)ccc(-c4cnn(C)c4)c3C(F)F)cc2C1 [Example 76, 7-(2-(difluoromethyl)-6-methyl-3-(1-methyl-1H-pyrazol-4-yl)phenyl)-N-methyl-2,3-dihydrobenzo[f][1,4]oxazepine-4(5H)-carboxamide]
187 nM	CNC(=O)N1CCOc2ccc(-c3cccc(-c4cnn(C)c4)c3C(F)F)cc2C1 [Example 77, 7-(2-(difluoromethyl)-3-(1-methyl-1H-pyrazol-4-yl)phenyl)-N-methyl-2,3-dihydrobenzo[f][1,4]oxazepine-4(5H)-carboxamide]
77 nM	CCC(=O)N1CCOc2ccc(N3CCCc4cc(-c5cnn(C)c5)ccc43)cc2C1 [Example 79, 1-(7-(6-(1-methyl-1H-pyrazol-4-yl)-3,4-dihydroquinolin-1(2H)-yl)-2,3-dihydrobenzo[f][1,4]oxazepin-4(5H)-yl)propan-1-one]
325 nM	C[C@H]1Nc2c(cccc2N2CCCc3cc(-c4cnn(C)c4)ccc32)NC1=O [Example 82, (R)-3-methyl-5-(6-(1-methyl-1H-pyrazol-4-yl)-3,4-dihydroquinolin-1(2H)-yl)-3,4-dihydroquinoxalin-2(1H)-one]
87 nM	CNC(=O)c1ccc2c(c1)c(N1CCCc3cc(-c4cnn(C)c4)ccc31)nn2C1CCOCC1 [Example 84]
450 nM	CNC(=O)N1CCN(C)c2ccc(-c3ccccc3C)cc2C1 [Example 85, N,1-dimethyl-7-(o-tolyl)-3,5-dihydro-2H-1,4-benzodiazepine-4-carboxamide]
81 nM	CNC(=O)N1CCOc2ccc(-c3cccc4nc(-c5ccc(OC)cc5)cn34)cc2C1 [Example 86, 7-[2-(4-methoxyphenyl)imidazo[1,2-a]pyridin-5-yl]-N-methyl-3,5-dihydro-2H-1,4-benzoxazepine-4-carboxamide]
429 nM	CC(=O)N1CCCc2cc(N3CCCc4cc(-c5cnn(C)c5)c(C(F)F)cc43)ccc21 [Example 87, 1-[6-[7-(difluoromethyl)-6-(1-methylpyrazol-4-yl)-3,4-dihydro-2H-quinolin-1-yl]-3,4-dihydro-2H-quinolin-1-yl]ethanone]
258 nM	CC(=O)N1CCc2c(cc(-c3cccc4cc(-c5cnn(C)c5)ncc34)c(=O)n2C)C1 [Example 88, 6-acetyl-1-methyl-3-[3-(1-methylpyrazol-4-yl)-8-isoquinolyl]-7,8-dihydro-5H-1,6-naphthyridin-2-one]
78 nM	CN1C(=O)C(=O)c2ccc(N3CCCc4cc(-c5cnn(C)c5)c(C(F)F)cc43)cc21 [Example 89, 6-[7-(difluoromethyl)-6-(1-methylpyrazol-4-yl)-3,4-dihydro-2H-quinolin-1-yl]-1-methyl-indoline-2,3-dione]
481 nM	Cn1cc(-c2cc3c(cc2C(F)F)N(c2ccc4oc(=O)n(C)c4c2)CCC3)cn1 [Example 91, 5-[7-(difluoromethyl)-6-(1-methylpyrazol-4-yl)-3,4-dihydro-2H-quinolin-1-yl]-3-methyl-1,3-benzoxazol-2-one]
90 nM	Cn1cc(-c2cc3cccc(-c4ccc5c(c4)n(C)c(=O)n5C)c3cn2)cn1 [Example 94, 1,3-dimethyl-5-(3-(1-methyl-1H-pyrazol-4-yl)isoquinolin-8-yl)-1H-benzo[d]imidazol-2(3H)-one]

SMILES	IC50
CCn1cc(C(=O)NC)c2cc(N3CCCc4cc(-c5cnn(C)c5)c(C(F)F)cc43)ccc21 [Example 51]	27 nM

Source: patent US10696655B2, “Therapeutic compounds and uses thereof” (GENENTECH, INC., priority 2017, dated 2020)
